According to paper PMC10560666, “Four new triterpene saponins from Cephalaria speciosa and their potent cytotoxic and immunomodulatory activities” (Scientific Reports, 2023):
Marks after values point to notes of the source that are not given here.

How the values were obtained:
[1] = system: THP-1 originated-macrophage; assay: MTT cytotoxicity on THP-1 originated macrophages; type: cell-based, human; details: Homo sapiens, THP-1, 48 h, mean ± standard deviation, n = 3, – = Not detected
[2] = system: CCD-34Lu normal human lung fibroblast cells; assay: MTT cytotoxicity on CCD-34Lu healthy cells; type: cell-based; details: Homo sapiens, Fibroblast, 48 h, mean ± standard deviation, n = 3, – = Not detected
Experimental: (§1) The human leukemia monocyte cell line (THP-1), human lung adenocarcinoma cell line (A549), human breast cancer cells (MDA-MB231), human prostate adenocarcinoma cells (PC3), human malignant glioma cell line (U87MG), human cervical gland carcinoma cells (HeLa), human hepatocellular carcinoma cells (HEP-G2) and normal human lung fibroblast cells (CCD-34-LU) as a healthy cell line in our stock used in this study were purchased from American Type Culture Collection (ATCC). THP-1 cells were cultured in Roswell Park Memorial Institute (RPMI 1640) medium and MDA-MB231, PC3, U87 MG, HeLa, HEP-G2, and CCD-34-LU cells cultivated in Dulbecco’s Modified Eagle’s Medium/Nutrient Mixture F-12 (DMEM/F12) (Gibco, USA) medium supplemented with 10% FBS (Gibco, USA), 100U/mL of penicillin 100 µg/mL of streptomycin (Gibco, USA), and 2 mM L-glutamine (Gibco, USA).
(§2) Cytotoxicity of saponins (1–4) and their prosapogenins (2a–4a) were tested against A549, MDA-MB-231, PC-3, U87MG, HeLa, HepG-2 cancer cells and CCD34-Lu healthy cell line using MTT [3-(4,5-dimethylthiazole-2-yl)-2,5-diphenyltetrazolium bromide)] assay (Acros Organics, New Jersey, USA)[11], [23]. For this purpose, 1 × 10^5 cells/mL of all the cell lines were seeded in 96-well plates (Corning, USA) and cultivated in the at 37 °C overnight. After the incubation, the cells were incubated with different concentrations of saponins (50, 5, and 0.5 µg/mL), and doxorubicin (Sigma, USA) (20, 2, and 0.2 µg/mL) for 48 h at 37 °C. Then, the MTT was added as 20 μL (from the stock concentration of 2.5 mg/mL) to all wells and further incubated for 4 h at 37 °C. Following the incubation, the medium was removed and 150 µL DMSO was added to dissolve the formed formazan crystals. After the formazan crystals were completely dissolved, the optical density (OD) was measured at 570 nm with an UV/Vis microplate spectrophotometer (Thermo Fisher Scientific, USA). All data are the results of at least three independent experiments carried out in triplicate. Data are presented as mean ± standard error of the mean (SEM) of samples. The IC50 value was calculated using the GraphPad Prism 8 (USA) program based on the calculated percent viability values and absorbance values. The percentage of viability was determined by Eq. (1):1 %Viablecells=absorbanceoftreatedcells-absorbanceofblank/absorbanceofcontrol-absorbanceofblank×100

[3] = system: A549 human lung adenocarcinoma cell line; assay: MTT cytotoxicity on A549; type: cell-based; details: Homo sapiens, A549, 48 h, mean ± standard deviation, n = 3, – = Not detected
Experimental: as §1, §2

[4] = system: MDA-MB-231 human breast cancer cells; assay: MTT cytotoxicity on MDA-MB-231; type: cell-based; details: Homo sapiens, MDA-MB-231, 48 h, mean ± standard deviation, n = 3, – = Not detected
Experimental: as §1, §2

[5] = system: PC-3 human prostate adenocarcinoma cells; assay: MTT cytotoxicity on PC-3; type: cell-based; details: Homo sapiens, 48 h, mean ± standard deviation, n = 3, – = Not detected
Experimental: as §1, §2

[6] = system: U87MG human malignant glioma cell line; assay: MTT cytotoxicity on U87MG; type: cell-based; details: Homo sapiens, U-87 MG, 48 h, mean ± standard deviation, n = 3, – = Not detected
Experimental: as §1, §2

[7] = system: HeLa human cervical gland carcinoma cells; assay: MTT cytotoxicity on HeLa; type: cell-based; details: Homo sapiens, HeLa, 48 h, mean ± standard deviation, n = 3, – = Not detected
Experimental: as §1, §2

[8] = system: HepG-2 human hepatocellular carcinoma cells; assay: MTT cytotoxicity on HepG-2; type: cell-based; details: Homo sapiens, HepG2, 48 h, mean ± standard deviation, n = 3, – = Not detected
Experimental: as §1, §2

[9] = system: THP-1 derived macrophage cells; assay: Macrophage polarization by flow cytometry (CD11b, CD80, CD163 MFI); type: cell-based, human; details: saponin 3 µg/mL, 24 h, PMA-differentiated THP-1, mean ± SD, n = 3
Experimental: To differentiate THP-1 cells into M0-THP-1, cells were seeded at an initial concentration of 1 × 10^6 cells/mL in 6-well plates (Corning, USA) and treated with 15 ng/mL phorbol 12-myristate 13—acetate (PMA, Sigma USA). Then incubate at 5% CO2, 37 °C for 48 h[24]. To evaluate the potential of saponins with/without infectious bronchitis virus (IBV) D274 antigen on macrophage polarization, THP-1 cells were treated with saponins at 3 µg/mL and then incubated for 24 h with or without 4 µL of inactivated IBV D274 antigens (final titer of 1 HA). […] Based on the results of our previous research, the saponin concentration was selected as a non-cytotoxic concentration. At the end of the incubation period, the cells were collected by trypsinization and washed three times with PBS. Following, 1 µL of PE anti-human CD80 (Biolegend, CA), FITC anti-human CD163 (Biolegend, CA), and FITC anti-human CD11b (Biolegend, CA) antibodies were added into the cells pellet and incubated for 45 min at room temperature in the dark. The cells pellets underwent two PBS washes following incubation. Finally, the cells were subsequently analyzed by flow cytometry (BD Accuri, C5). 1 × 10^4 cells were counted for each sample group using flow cytometry. All data are the results of at least three independent experiments carried out in triplicate. Data are presented as mean ± standard error of the mean (SEM) of samples. The untreated stained macrophage cells with anti-human CD80, FITC anti-human CD163, and FITC anti-human CD11b were compared with the results of treated cells to obtain from M0 polarization to M1 and M2 or both.
Figure 2 (a) Saponins without antigen treatment, (b) Saponins treated with antigen. THP-1 cells were treated with 15 ng/ml PMA and 3 µg/ml saponins and 1 HA titer of IBV D274 induced in the saponins with antigen group for 24 h incubation. The macrophage polarization was determined with flow cytometry. Each value represents the mean ± standard deviation of three independents measurements. (P < 0.05*, P < 0.01**, P < 0.001***).

[10] = with inactivated IBV D274 antigen (1 HA)

Compound	IC50 [1] [µM]	IC50 [2] [µM]	IC50 [3] [µM]	IC50 [4] [µM]	IC50 [5] [µM]	IC50 [6] [µM]	IC50 [7] [µM]	IC50 [8] [µM]	MFI of CD 11b (M0 marker) [9, 10]	MFI of CD80 (M1 marker) [9, 10]	MFI of CD163 (M2 marker) [9, 10]	MFI of CD 11b (M0 marker) ([9]; without antigen)	MFI of CD80 (M1 marker) ([9]; without antigen)	MFI of CD163 (M2 marker) ([9]; without antigen)
C[C@@H]1O[C@@H](O[C@H]2[C@H](O[C@H]3CC[C@@]4(C)C(CC[C@]5(C)C4CC=C4C6CC(C)(C)CC[C@]6(C(=O)O)CC[C@]45C)C3(C)C)O[C@H](CO)[C@H](O)[C@@H]2O)[C@H](O)[C@H](O)[C@H]1O (stereo partly drawn) [Compound 2a, 3-O-α-L-rhamopyranosyl-(1 → 2)-β-D-galactopyranosyl oleanoic acid]	37.3 ± 8.17	> 65.4	20.8 ± 0.46	24.3 ± 2.65	> 65.4	> 65.4	> 65.4	> 65.4	28,297.32 ± 808.92	4727.00 ± 221.96	7408.64 ± 224.16	26,304.81 ± 2370.42	3,962.53 ± 246.09	
C[C@@H]1O[C@@H](O[C@H]2[C@H](O[C@H]3CC[C@@]4(C)C(CC[C@]5(C)C4CC=C4C6CC(C)(C)CC[C@]6(C(=O)O)CC[C@]45C)[C@]3(C)CO)O[C@H](CO)[C@H](O)[C@@H]2O)[C@H](O)[C@H](O)[C@H]1O (stereo partly drawn) [Compound 1, 3-O-α-L-rhamopyranosyl-(1 → 2)-β-D-galactopyranosyl-hederagenin]	27.6 ± 0.52	> 64	8.59 ± 0.19	15.1 ± 1.02	> 64	> 64	48.1 ± 4.56	> 64	31,644.21 ± 849.30	4062.43 ± 906.36		28,644.50 ± 849.33	4,536.00 ± 239.19	6,400.83 ± 196.02*
C[C@@H]1O[C@@H](O[C@H]2[C@H](O[C@H]3CC[C@@]4(C)C(CC[C@]5(C)C4CC=C4C6CC(C)(C)CC[C@]6(C(=O)O[C@@H]6O[C@H](CO[C@@H]7O[C@H](CO)[C@@H](O)[C@H](O)[C@H]7O)[C@@H](O)[C@H](O)[C@H]6O)CC[C@]45C)[C@]3(C)CO)O[C@H](CO)[C@H](O)[C@@H]2O)[C@H](O)[C@H](O)[C@H]1O (stereo partly drawn) [Compound 4, 3-O-α-L-rhamnopyranosyl-(1 → 2)-β-D-galactopyranosyl-hederagenin-28-O-β-D-glucopyranosyl-(1 → 6)-β-D-glucopyranosyl ester]	> 45.2	> 45.2	> 45.2	> 45.2	> 45.2	> 45.2	> 45.2	> 45.2	32,925.30 ± 947.75	4593.32 ± 951.60	8203.00 ± 246.09**	27,324.70 ± 2398.39	4,380.00 ± 169.38	6,755.64 ± 206.67**
